Here are results for ten molecules from ChEMBL document CHEMBL4130394, “Novel 6-substituted benzoyl and non-benzoyl straight chain pyrrolo[2,3-d]pyrimidines as potential antitumor agents with multitargeted inhibition of TS, GARFTase and AICARFTase” (Eur J Med Chem, 2017).

The structures appear in SMILES notation. The source made the active and inactive calls. The rule behind the calls is not given here.

Test [1] has as its system KB. Description: Cell cycle arrest in human KB cells assessed as accumulation at G1 phase at 1 uM after 96 hrs by propidium iodide staining based flow cytometry (reference value: 54.75%). In kind it is functional. On the technique in general: Flow cytometry measures light scatter and fluorescence of single cells or particles in a stream.
The next test deals with SW-620. Nature of the test: Antiproliferative activity against human SW620 cells in folate free medium after 72 hrs in presence of leucovorin by MTT assay. The class given is functional, cell-based. Particulars: SW-620, 72 h.
In test [2] the test system is KB. Nature of the test: Potency index, ratio of methotrexate IC50 to compound IC50 for human KB cells. In kind it is functional.
In test [3] the test system is KB. Description: Induction of apoptosis in human KB cells assessed as early apoptotic cells at 1 uM after 48 hrs by Annexin V-FITC/propidium iodide staining based flow cytometry (reference value: 16.9%). The class given is functional.
The next test relates to MCF7. Description: Antiproliferative activity against human MCF7 cells in folate free medium after 72 hrs in presence of leucovorin by MTT assay. The class given is functional, cell-based. Particulars: MCF7, 72 h. On the technique in general: Formazan colour is commonly taken as a measure of viable cells.
Test [4] has as its target T1, Thymidylate synthase/AICAR transformylase (Homo sapiens) (UniProt P04818+P31939). Nature of the test: Inhibition of TS/AICARFTase in human KB cells assessed as reduction in cell proliferation up to 1 uM after 72 hrs in presence of excess of thymidine and AICA by MTT assay. The class given is cell-based.
The target in test [5] is T2, Thymidylate synthase/GAR transformylase/AICAR transformylase (Homo sapiens, UniProt P04818+P31939+P22102). Nature of the test: Inhibition of TS/AICARFTase/GARFTase in human KB cells assessed as reduction in cell proliferation up to 1 uM after 72 hrs in presence of excess of thymidine and adenosine by MTT assay. In kind it is cell-based.
Test [6] has as its target Thymidylate synthase (Homo sapiens) (UniProt P04818). Description: Inhibition of thymidylate synthase in human KB cells assessed as reduction in cell proliferation up to 1 uM after 72 hrs in presence of excess of thymidine by MTT assay. In kind it is cell-based.
Test [7] relates to KB. Nature of the test: Cell cycle arrest in human KB cells assessed as accumulation at G2 phase at 1 uM after 96 hrs by propidium iodide staining based flow cytometry (reference value: 9.59%). The class given is functional.
Test [8] deals with GAR transformylase/AICAR transformylase (Homo sapiens) (UniProt P31939+P22102). Description: Inhibition of AICARFTase/GARFTase in human KB cells assessed as reduction in cell proliferation up to 1 uM after 72 hrs in presence of excess of adenosine by MTT assay. The class given is cell-based.
In test [9] the target is T3, Bifunctional purine biosynthesis protein ATIC (Homo sapiens, UniProt P31939). Description: Inhibition of AICARFTase in human KB cells assessed as reduction in cell proliferation up to 1 uM after 72 hrs in presence of excess of AICA by MTT assay. In kind it is cell-based.
Target sequence in this assay (P31939 whole entry, looked up): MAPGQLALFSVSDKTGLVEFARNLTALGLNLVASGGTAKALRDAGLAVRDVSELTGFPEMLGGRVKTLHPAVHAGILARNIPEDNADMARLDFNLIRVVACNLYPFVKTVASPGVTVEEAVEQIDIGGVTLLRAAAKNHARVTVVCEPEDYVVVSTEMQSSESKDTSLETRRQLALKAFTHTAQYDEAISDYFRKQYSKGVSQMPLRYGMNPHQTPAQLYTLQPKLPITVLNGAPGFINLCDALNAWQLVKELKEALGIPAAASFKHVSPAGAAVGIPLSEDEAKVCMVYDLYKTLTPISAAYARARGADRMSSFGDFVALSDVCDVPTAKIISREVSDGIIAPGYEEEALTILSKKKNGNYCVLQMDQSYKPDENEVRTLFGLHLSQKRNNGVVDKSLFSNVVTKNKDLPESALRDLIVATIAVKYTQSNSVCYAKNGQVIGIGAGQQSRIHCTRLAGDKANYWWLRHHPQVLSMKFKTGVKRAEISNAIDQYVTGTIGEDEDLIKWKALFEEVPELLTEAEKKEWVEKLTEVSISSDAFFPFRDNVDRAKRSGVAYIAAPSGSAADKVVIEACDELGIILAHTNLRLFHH
In test [10] the target is T2, Thymidylate synthase/GAR transformylase/AICAR transformylase. Description: Inhibition of TS/AICARFTase/GARFTase in human KB cells assessed as reduction in cell proliferation in folate free medium after 72 hrs in presence of leucovorin by MTT assay. The class given is cell-based.
Test [11] concerns KB. Nature of the test: Cell cycle arrest in human KB cells assessed as accumulation at S phase at 1 uM after 96 hrs by propidium iodide staining based flow cytometry (reference value: 35.66%). The class given is functional.
In test [12] the test system is KB. Nature of the test: Induction of apoptosis in human KB cells assessed as necrotic cells at 1 uM after 48 hrs by Annexin V-FITC/propidium iodide staining based flow cytometry (reference value: 3%). The class given is functional.
The test system of test [13] is KB. Description: Induction of apoptosis in human KB cells assessed as live cells at 1 uM after 48 hrs by Annexin V-FITC/propidium iodide staining based flow cytometry (reference value: 74.6%). The class given is functional.
Test [14] relates to KB. Nature of the test: Potency index, ratio of pemetrexed IC50 to compound IC50 for human KB cells. The class given is functional.
Test [15] concerns KB. Nature of the test: Induction of apoptosis in human KB cells assessed as late apoptotic cells at 1 uM after 48 hrs by Annexin V-FITC/propidium iodide staining based flow cytometry (reference value: 5.5%). The class given is functional.
The test system of test [16] is KB. Nature of the test: Inhibition of colony formation in human KB cells at 100 nM after 10 to 14 days by methylene blue staining based assay relative to control. In kind it is functional.
Test [17] deals with KB. Nature of the test: Cell cycle arrest in human KB cells assessed as accumulation at S phase at 5 uM after 96 hrs by propidium iodide staining based flow cytometry (reference value: 35.66%). The class given is functional.
The subject of test [18] is KB. Nature of the test: Cell cycle arrest in human KB cells assessed as accumulation at G1 phase at 5 uM after 96 hrs by propidium iodide staining based flow cytometry (reference value: 54.75%). In kind it is functional.
Test [19] has as its system KB. Description: Cell cycle arrest in human KB cells assessed as accumulation at G2 phase at 5 uM after 96 hrs by propidium iodide staining based flow cytometry (reference value: 9.59%). In kind it is functional.
Test [20] has as its system KB. Nature of the test: Induction of apoptosis in human KB cells assessed as live cells at 10 uM after 48 hrs by Annexin V-FITC/propidium iodide staining based flow cytometry (reference value: 74.6%). In kind it is functional.
Test [21] deals with KB. Nature of the test: Cell cycle arrest in human KB cells assessed as accumulation at G2 phase at 10 uM after 96 hrs by propidium iodide staining based flow cytometry (reference value: 9.59%). In kind it is functional.
The subject of test [22] is KB. Description: Cell cycle arrest in human KB cells assessed as accumulation at S phase at 10 uM after 96 hrs by propidium iodide staining based flow cytometry (reference value: 35.66%). The class given is functional.
Test [23] has as its system KB. Description: Induction of apoptosis in human KB cells assessed as early apoptotic cells at 10 uM after 48 hrs by Annexin V-FITC/propidium iodide staining based flow cytometry (reference value: 16.9%). In kind it is functional.
The subject of test [24] is KB. Description: Induction of apoptosis in human KB cells assessed as necrotic cells at 10 uM after 48 hrs by Annexin V-FITC/propidium iodide staining based flow cytometry (reference value: 3%). In kind it is functional.
Test [25] concerns KB. Description: Induction of apoptosis in human KB cells assessed as late apoptotic cells at 10 uM after 48 hrs by Annexin V-FITC/propidium iodide staining based flow cytometry (reference value: 5.5%). In kind it is functional.
In test [26] the test system is KB. Nature of the test: Cell cycle arrest in human KB cells assessed as accumulation at G1 phase at 10 uM after 96 hrs by propidium iodide staining based flow cytometry (reference value: 54.75%). In kind it is functional.
Test [27] concerns the target T3, Bifunctional purine biosynthesis protein ATIC. Description: Inhibition of recombinant human AICARFTase using AICAR as substrate incubated at 37 degC for 30 mins measured after overnight incubation at 4 degC.
Target sequence in this assay (P31939 whole entry): as the sequence (P31939 whole entry, looked up) above
For test [28], the target named is T1, Thymidylate synthase/AICAR transformylase (Homo sapiens). Description: Inhibition of TS/AICARFTase in human KB cells assessed as reduction in cell proliferation at 1 to 10 nM after 72 hrs in presence of excess of thymidine and AICA by MTT assay. In kind it is cell-based.
For test [29], the target named is T3, Bifunctional purine biosynthesis protein ATIC. Description: Inhibition of AICARFTase in human KB cells assessed as reduction in cell proliferation at 1 to 10 nM after 72 hrs in presence of excess of AICA by MTT assay. The class given is cell-based.
Target sequence in this assay (P31939 whole entry, looked up): as above

T1 sequence (P04818 whole entry, looked up): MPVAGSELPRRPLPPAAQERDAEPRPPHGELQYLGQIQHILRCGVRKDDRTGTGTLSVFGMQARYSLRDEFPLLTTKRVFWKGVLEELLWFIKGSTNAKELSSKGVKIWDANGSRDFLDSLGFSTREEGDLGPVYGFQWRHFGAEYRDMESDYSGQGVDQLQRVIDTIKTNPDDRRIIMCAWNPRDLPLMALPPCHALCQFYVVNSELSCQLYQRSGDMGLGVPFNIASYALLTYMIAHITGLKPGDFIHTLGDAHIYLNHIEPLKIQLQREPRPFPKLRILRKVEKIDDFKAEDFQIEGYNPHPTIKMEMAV
T1 sequence (P31939 whole entry, looked up): as the sequence (P31939 whole entry, looked up) above
GAR transformylase/AICAR transformylase (Homo sapiens), sequence (P22102 whole entry, looked up): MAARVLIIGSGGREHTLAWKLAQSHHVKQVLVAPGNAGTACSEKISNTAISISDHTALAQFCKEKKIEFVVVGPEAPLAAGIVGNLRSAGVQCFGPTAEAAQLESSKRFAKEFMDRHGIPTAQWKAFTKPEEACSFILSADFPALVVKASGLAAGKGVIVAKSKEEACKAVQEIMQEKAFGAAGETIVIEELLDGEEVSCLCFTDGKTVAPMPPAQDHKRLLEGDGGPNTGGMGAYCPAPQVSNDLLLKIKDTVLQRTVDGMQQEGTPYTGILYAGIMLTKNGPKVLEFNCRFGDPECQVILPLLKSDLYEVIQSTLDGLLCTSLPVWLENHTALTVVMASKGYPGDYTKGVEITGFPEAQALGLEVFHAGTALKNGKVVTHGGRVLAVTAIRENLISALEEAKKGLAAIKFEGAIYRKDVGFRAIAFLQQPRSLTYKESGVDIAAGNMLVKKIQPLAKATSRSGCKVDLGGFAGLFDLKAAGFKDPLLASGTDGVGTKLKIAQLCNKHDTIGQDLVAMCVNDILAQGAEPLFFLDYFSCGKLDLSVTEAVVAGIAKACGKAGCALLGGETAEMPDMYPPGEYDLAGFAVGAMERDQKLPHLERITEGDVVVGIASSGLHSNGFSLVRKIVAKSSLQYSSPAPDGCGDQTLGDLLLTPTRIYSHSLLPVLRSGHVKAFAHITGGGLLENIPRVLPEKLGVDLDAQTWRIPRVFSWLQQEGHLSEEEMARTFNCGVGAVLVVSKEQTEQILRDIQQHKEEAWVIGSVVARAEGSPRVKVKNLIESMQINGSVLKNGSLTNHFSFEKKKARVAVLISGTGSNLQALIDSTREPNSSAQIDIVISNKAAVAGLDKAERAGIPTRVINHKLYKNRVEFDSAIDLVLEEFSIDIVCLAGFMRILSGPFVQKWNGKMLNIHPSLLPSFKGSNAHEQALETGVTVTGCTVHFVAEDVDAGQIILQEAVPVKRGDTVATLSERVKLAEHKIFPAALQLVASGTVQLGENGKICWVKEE
GAR transformylase/AICAR transformylase (Homo sapiens), sequence (P31939 whole entry, looked up): as the sequence (P31939 whole entry, looked up) above
T2 sequence (P04818 whole entry, looked up): as the sequence (P04818 whole entry, looked up) above
T2 sequence (P22102 whole entry, looked up): as the sequence (P22102 whole entry, looked up) above
T2 sequence (P31939 whole entry, looked up): as the sequence (P31939 whole entry, looked up) above
Thymidylate synthase (Homo sapiens), sequence (P04818 2-313 limits assumed): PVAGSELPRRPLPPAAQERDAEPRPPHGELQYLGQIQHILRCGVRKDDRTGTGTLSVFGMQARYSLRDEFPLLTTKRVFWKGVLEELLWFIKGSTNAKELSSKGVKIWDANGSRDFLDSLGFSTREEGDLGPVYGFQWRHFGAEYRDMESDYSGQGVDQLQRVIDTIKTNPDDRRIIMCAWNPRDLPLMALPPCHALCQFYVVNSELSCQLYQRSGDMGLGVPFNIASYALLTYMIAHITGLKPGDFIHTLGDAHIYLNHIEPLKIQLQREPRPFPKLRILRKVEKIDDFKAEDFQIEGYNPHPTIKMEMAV

For orientation: inhibition means the share of the control response that was lost under treatment. Consider `Nc1nc2[nH]c(CC(=O)NCC(=O)N[C@@H](CCC(=O)O)C(=O)O)cc2c(=O)[nH]1`, for which the Activity in the test on KB [1] is 52.6%; with KB [3], 35.4%; with KB [7] it was 2.43%; in the test on KB [11], 44.96%; in the test with KB [12], 0.3%; with KB [13] it was 57.9%. Besides, the Activity in the test with KB [15] amounted to 6.4%. In addition, the IC50 in the test with SW-620 amounted to 786 nM; with MCF7 it was 913 nM; in test [10], 7.8 ×10⁻⁵ uM. The “Ratio IC50” value with KB [2] came to 140; with KB [14], 1000. Besides, the inhibition entry in test [4] and in [9] was “Active” throughout. The inhibition result in test [5], in [6] and in test [8] was “inactive” in each case. This molecule registered an inhibition at 0.1 µM with KB [16] greater than 90%.
Turning to `Nc1nc2[nH]c(CC(=O)NCCCC(=O)N[C@@H](CCC(=O)O)C(=O)O)cc2c(=O)[nH]1`, the IC50 in the test with SW-620 stood at 948 nM; in the test on MCF7, 3640 nM; in test [10], 0.107 µM.
In the case of `COc1cc([C@@H]2c3cc4c(cc3[C@@H](O[C@@H]3O[C@@H]5CO[C@@H](C)O[C@H]5[C@H](O)[C@H]3O)[C@H]3COC(=O)[C@H]23)OCO4)cc(OC)c1O` [ETOPOSIDE], the values for the Activity in the test with KB [17], with KB [18] and in the test on KB [19] were 0%, 96.81% and 3.19%, respectively.
Turning to `Nc1nc2[nH]cc(CCc3ccc(C(=O)N[C@@H](CCC(=O)O)C(=O)O)cc3)c2c(=O)[nH]1` [PEMETREXED], the IC50 in the test on SW-620 came to 90 nM; in the test on MCF7 it was 650 nM. Besides, the Activity in the test with KB [20] is 10.2%; in the test on KB [21], 0%; in the test on KB [22] it was 38.05%; with KB [23] it was 67%; with KB [24] it was 1%; with KB [25] it was 21.8%. In addition, the Activity with KB [26] is on record as 61.95%.
As for `Nc1nc2[nH]c(CC(=O)NCCCCC(=O)N[C@@H](CCC(=O)O)C(=O)O)cc2c(=O)[nH]1`, the results for the IC50 (with SW-620; with MCF7; in [10]) were 1140 nM, 3810 nM and 0.043 µM, respectively.
The matching figures for `Nc1nc2[nH]c(CC(=O)NCCC(=O)N[C@@H](CCC(=O)O)C(=O)O)cc2c(=O)[nH]1`: 1100 nM, 2380 nM and 0.092 µM.
In general, Ki refers to the equilibrium dissociation constant of an inhibitor or competing ligand from its target. `Nc1nc2ccc(S(=O)(=O)Nc3ccc(C(=O)N[C@@H](CCC(=O)O)C(=O)O)cc3)cc2c(=O)[nH]1`: the inhibition constant (Ki) in test [27] amounted to 8 nM.
As to `Nc1nc2[nH]c(CC(=O)NCCCCCC(=O)N[C@@H](CCC(=O)O)C(=O)O)cc2c(=O)[nH]1`, the IC50 with SW-620 turned out to be 563 nM; in the test with MCF7 it was 1080 nM; in [10] it was 1.4 ×10⁻⁴ microM. In addition, the inhibition entry in [4] and in [9] was “Active” in each case. Besides, the inhibition entry in [5], in test [6] and in test [8] was “inactive” in each case.
`CN(Cc1cnc2nc(N)nc(N)c2n1)c1ccc(C(=O)N[C@@H](CCC(=O)O)C(=O)O)cc1` [METHOTREXATE]: the IC50 in the test on SW-620 is 22 nM; in the test with MCF7, 97 nM.
Consider `Nc1nc2[nH]c(CC(=O)Nc3ccc(C(=O)N[C@@H](CCC(=O)O)C(=O)O)cc3)cc2c(=O)[nH]1`, for which the Activity was found to be 31.38% in the test on KB [1]; 36.2% with KB [3]; 0% in the test with KB [7]; 68.62% in the test on KB [11]; 1.3% in the test with KB [12]; 55.4% in the test with KB [13]. Further, in the test with KB [15], the Activity stood at 7.1%. Besides, the IC50 came out at 977 nM in the test on SW-620, 1130 nM in the test with MCF7 and 7.5 ×10⁻³ microM in test [10]. The inhibition entry in test [28] and in test [29] was “Active” throughout. In the test on KB [16], the inhibition at 0.1 µM is greater than 80%.
